From patent publication US5273991A, “Imidazole-containing compositions and methods of use thereof analogs of distamycin” (Research Corporation Technologies, Inc., priority 1992, dated 1993)

Legend:
[1] = system: calf thymus DNA; assay: circular dichroism (CD) titration, calf thymus DNA; format: binding; settings: for isobestic point: calf thymus DNA; for binding site size: from saturation point r'~0.25; for saturation point r': moles of drug to moles of DNA base pairs
Method: The DNA binding properties of the present compounds were assessed by circular dichroism (CD) titration experiments. Methods for CD titration can be found, for example, in Zimmer et al. (1986) Prog. Biophys. Molec. Biol 47, 31. The conformation of DNA can be readily determined by CD experiments, and for B-DNA, characteristic positive and negative Cotton effects are observed at 260 and 245 nm, respectively.
The interaction of Compounds 6-10 to a number of DNAs [calf thymus, poly(dA dT) and poly(dG dC)] were analyzed by CD titration studies. All the CD titration experiments were performed using identical procedures, concentrations of DNA, and increments of drug:DNA ratios (or `r`, i.e. moles of drug to moles of DNA base pairs). Therefore, the differences observed in the CD spectra for the titration of each of the compounds to the polydeoxynucleotides may be directly compared to reflect their DNA binding properties.
All experiments were performed with a continuous flow of nitrogen purging the polarimeter. A 1 mm path length jacketed cell was used and all experiments were done at room temperature. Initially, DNA [0.02 μ moles (base pairs), 130 μL] was placed in the cell and the spectrum of the DNA alone was collected. Aliquots of drug were added and the spectra collected. The drug solutions were 1 mM and amounts of the drug added correspond to a drug to base pair ratio of 0.05, 0.10, 0.15, 0.20, 0.25, 0.30, 0.40, 0.50, 0.60, 0.80, 1.00. The scan parameters were set and standard for all experiments. The spectra were collected from 400 nm to 200 nm. The sensitivity was set at 1 mdeg and the scan speed was set at 20 nm per minute. Three scans were accumulated and automatically averaged by the computer. The λmax and ellipticity (mdeg) for each spectrum were collected from the raw scans and the final plots were smoothed by the noise reduction program on the computer. […] The induced CD band is presumably due to the uv absorption π to π^* transition of the drug in the drug:DNA complex. […] Therefore interaction of these drugs with DNA causes only minor conformational changes in the double helix.

[2] = system: 1GROV1; assay: NCI cytotoxicity screen (SRB); format: cell-based, human
[3] = system: 786-0; assay: NCI cytotoxicity screen (SRB); format: cell-based, human
[4] = system: ACHN; assay: NCI cytotoxicity screen (SRB); format: cell-based, human
[5] = system: CAKI-1; assay: NCI cytotoxicity screen (SRB); format: cell-based, human
[6] = system: HOP-18; assay: NCI cytotoxicity screen (SRB); format: cell-based, human; settings: subsequent test date
[7] = system: LXFL529; assay: NCI cytotoxicity screen (SRB); format: cell-based, human
[8] = system: M19-MEL; assay: NCI cytotoxicity screen (SRB); format: cell-based, human
[9] = system: OVCAR-3; assay: NCI cytotoxicity screen (SRB); format: cell-based, human
[10] = system: RXF-393; assay: NCI cytotoxicity screen (SRB); format: cell-based, human
[11] = system: RXR-631; assay: NCI cytotoxicity screen (SRB); format: cell-based, human
[12] = system: SK-MEL-28; assay: NCI cytotoxicity screen (SRB); format: cell-based, human
[13] = system: SNB-75; assay: NCI cytotoxicity screen (SRB); format: cell-based, human
[14] = system: SNB-78; assay: NCI cytotoxicity screen (SRB); format: cell-based, human
[15] = system: SR; assay: NCI cytotoxicity screen (SRB); format: cell-based, human
[16] = system: TK-10; assay: NCI cytotoxicity screen (SRB); format: cell-based, human
[17] = system: UACC-257; assay: NCI cytotoxicity screen (SRB); format: cell-based, human
[18] = system: UACC-62; assay: NCI cytotoxicity screen (SRB); format: cell-based, human
[19] = system: VO-31; assay: NCI cytotoxicity screen (SRB); format: cell-based, human
[20] = system: LOX IMVI; assay: NCI cytotoxicity screen (SRB); format: cell-based, human; settings: 48 h; Melanoma LOX IMVI
[21] = system: CCRF-DEM; assay: NCI cytotoxicity screen (SRB); format: cell-based, human; settings: 48 h; Leukemia CCRF-DEM
[22] = SK-MEL-28, subsequent test date

In the case of `CN(C)CCNC(=O)c1nc(NC(=O)c2nc(NC(=O)c3ccc(N(CCCl)CCCl)cc3)cn2C)cn1C` [Compound 6, N-(N',N'-dimethylaminoethyl)-1-methyl-4-{4-[4,4-bis(2-chloroethyl)aminobenzamido]-1-methylimidazole-2-carboxamido}imidazole-2-carboxamide], the “negative CD band, ellipticity” value ([1]; 310 nm, r'=0.2, low drug concentration) is reported as 0.2 mdeg, the “negative CD band, ellipticity” value ([1]; 315 nm, r'>0.4, higher drug concentrations) is reported as ~ 3 mdeg and the “weak positive CD band, ellipticity” value ([1]; 340 nm, r'=0.2, low drug concentration) is reported as 0.8 mdeg. For the same compound, the isobestic point [1] was 320 nm, the binding site size [1] was “about four” and the “saturation point r'” value [1] was ~ 0.25. For the same compound, the “positive CD band at 340 nm, in words” value ([1]; r'>0.4, higher drug concentrations) was “disappeared”, the IC50 ([2]; 1GROV1, subsequent test date) was 59.6 µM and the IC50 ([2]; 48 h, Ovarian Cancer 1GROV1) was 50 µM. It also gave an IC50 ([3]; 786-0, subsequent test date) of 6.98 µM, an IC50 ([3]; 48 h, Renal Cancer 786-0) of 25.4 µM and an IC50 ([4]; 48 h, Renal Cancer ACHN) of 54.2 µM. For the same compound, the IC50 ([4]; ACHN, subsequent test date) was 46.9 µM, the IC50 ([5]; 48 h, Renal Cancer CAKI-1) was 51.9 µM and the IC50 ([5]; CAKI-1, subsequent test date) was 59.7 µM. For the same compound, the IC50 [6] was 10.2 µM, the IC50 ([7]; 48 h, Non-Small Cell Lung Cancer LXFL529) was 13.2 µM and the IC50 ([7]; LXFL529, subsequent test date) was 34.8 µM. It also gave an IC50 ([8]; 48 h, Melanoma M19-MEL) of 5.64 µM, an IC50 ([8]; M19-MEL, subsequent test date) of 5.65 µM and an IC50 ([9]; 48 h, Ovarian Cancer OVCAR-3) of 56 µM. For the same compound, the IC50 ([9]; OVCAR-3, subsequent test date) was 56.7 µM, the IC50 ([10]; 48 h, Renal Cancer RXF-393) was 50.3 µM and the IC50 ([10]; RXF-393, subsequent test date) was 44.3 µM. For the same compound, the IC50 ([11]; 48 h, Renal Cancer RXR-631) was 6.61 µM, the IC50 ([11]; RXR-631, subsequent test date) was 9.95 µM and the IC50 ([12]; 48 h, Melanoma SK-MEL-28) was 5.69 µM. It also gave an IC50 [12, 22] of 5.78 µM, an IC50 ([13]; 48 h, CNS Cancer SNB-75) of 41 µM and an IC50 ([13]; SNB-75, subsequent test date) of 41.7 µM. It also gave an IC50 ([14]; 48 h, CNS Cancer SNB-78) of 67.2 µM, an IC50 ([14]; SNB-78, subsequent test date) of 78.9 µM and an IC50 ([15]; 48 h, Leukemia SR) of 10.4 µM. For the same compound, the IC50 ([15]; SR, subsequent test date) was greater than 100 µM, the IC50 ([16]; 48 h, Renal Cancer TK-10) was 59.9 µM and the IC50 ([16]; TK-10, subsequent test date) was 56.2 µM. It also gave an IC50 ([17]; 48 h, Melanoma UACC-257) of 7.03 µM, an IC50 ([17]; UACC-257, subsequent test date) of 57.6 µM and an IC50 ([18]; 48 h, Melanoma UACC-62) of 7.61 µM. It also gave an IC50 ([18]; UACC-62, subsequent test date) of 59.7 µM, an IC50 ([19]; 48 h, Renal Cancer VO-31) of 59.2 µM and an IC50 ([19]; VO-31, subsequent test date) of 57.9 µM.
`CN(C)CCNC(=O)c1nc(NC(=O)c2nc(NC(=O)c3nc(NC(=O)c4ccc(N(CCCl)CCCl)cc4)cn3C)cn2C)cn1C` [Compound 7, N-(N',N'-dimethylaminoethyl)-1-methyl-4-{1-methyl-4-[4-(4,4-bis-(2-chloroethyl)aminobenzamido)-1-methylimidazole-2-carboxamido]imidazole-2-carboxamido}imidazole-2-carboxamide] was tested, and the “weak negative CD band, ellipticity” value ([1]; 335 nm, r'=0.2) was 0.5 mdeg, the isobestic point [1] was 300 nm and the binding site size [1] was “four”. For the same compound, the “saturation point r'” value [1] was ~ 0.25, the IC50 ([3]; 786-0, subsequent test date) was 0.51 µM and the IC50 ([4]; 48 h, Renal Cancer ACHN) was 7.05 µM. It also gave an IC50 ([4]; ACHN, subsequent test date) of 4.92 µM, an IC50 ([5]; 48 h, Renal Cancer CAKI-1) greater than 100 µM and an IC50 ([7]; LXFL529, subsequent test date) of 0.54 µM. For the same compound, the IC50 ([8]; M19-MEL, subsequent test date) was 0.78 µM, the IC50 ([9]; 48 h, Ovarian Cancer OVCAR-3) was 0.72 µM and the IC50 ([9]; OVCAR-3, subsequent test date) was 0.62 µM. For the same compound, the IC50 ([10]; 48 h, Renal Cancer RXF-393) was 0.66 µM, the IC50 ([11]; 48 h, Renal Cancer RXR-631) was 5.97 µM and the IC50 ([12]; 48 h, Melanoma SK-MEL-28) was 0.91 µM. It also gave an IC50 [12, 22] of 0.64 µM, an IC50 ([13]; 48 h, CNS Cancer SNB-75) of 0.61 µM and an IC50 ([15]; 48 h, Leukemia SR) of 0.91 µM. For the same compound, the IC50 ([16]; 48 h, Renal Cancer TK-10) was 4.2 µM, the IC50 ([16]; TK-10, subsequent test date) was 3.51 µM and the IC50 ([19]; 48 h, Renal Cancer VO-31) was greater than 100 µM. It also gave an IC50 ([19]; VO-31, subsequent test date) of 96.6 µM.
`CN(C)CCNC(=O)c1nc(NC(=O)c2nc(NC(=O)CCCc3ccc(N(CCCl)CCCl)cc3)cn2C)cn1C` [Compound 9, N-(N',N'-dimethylaminoethyl)-1-methyl-4-{4-[4,4-bis(2-chloroethyl)aminophenyl-1-butanamido]-1-methylimidazole-2-carboxamido}imidazole-2-carboxamide] was tested, and the IC50 [20] was 49.5 µM.
`CN(C)CCNC(=O)c1nc(NC(=O)c2nc(NC(=O)c3nc(NC(=O)CCCc4ccc(N(CCCl)CCCl)cc4)cn3C)cn2C)cn1C` [Compound 10, N-(N',N'-dimethylaminoethyl)-1-methyl-4-{1-methyl-4-[4-(4,4-bis(2-chloroethyl)aminophenyl-1-butanamido)-1-methylimidazole-2-carboxamido]imidazole-2-carboxamido}imidazole-2-carboxamide] showed an IC50 [21] of 9.67 µM, an IC50 [20] of 6.44 µM and an IC50 ([14]; 48 h, CNS Cancer SNB-78) of 9.75 µM.
